As usually defined, the Ki is the equilibrium dissociation constant of an inhibitor or competing ligand from its target. Read a low Ki as tighter binding.

The structures appear in SMILES notation. Some results are limits rather than exact numbers.

The subject of assay [1] is guinea pig ileum. In words: guinea pig ileum test (in vitro). To be noted: relative to PGF2α (conventional value 1), limits in brackets. How it is done: (§1) In the Table the conventional value of 1 was given to the activity of PGF2α in both tests.
*In a 10 ml thermostatic bath held at 35° C., ilea of male guinea
pigs, under 0.5 g traction, were subjected to carbondioxide in a Tyrode
solution; the preparation was left for 30 minutes to stabilize before the
compounds were tested. The response was recorded using a isotonic frontal
lever, long enough to amplify the response 4.5 times.

For assay [2], the system named is oestrogenized rat uteri. In words: rat uterus test (in vitro). The following applies: relative to PGF2α (conventional value 1), limits in brackets. The method, then: as §1
**In a 10 ml thermostatic bath held at 29° C., oestrogenized rat
uteri under 0.5 g traction were subjected to carbondioxide in a Dejalon
saline solution. The prepration was left to stabilize for 30 minutes
before the compounds were tested. Response was measured using a isotonic
frontal lever, long enough to amplify the response 4.5 times.

In assay [3] the test system is pregnant rat. The assay can be described thus: luteolytic activity in the pregnant rat. To be noted: pregnant rat at the 9th-10th day of pregnancy; relative to PGF2α (conventional value 1). In kind it is in vivo. An excerpt: The action selectivity of the compounds of the invention on the miometrium and on the reproductive apparatus is also proven by the remarkable increase of the luteolytic activity in the pregnant rat at the 9th-10th day of pregnancy. In fact, if the conventional value 1 is given to the luteolytic activity of PGF2α, the value of 100 at least is to be given to the luteolytic activity of 13,14-dehydro-17-phenyl-20,19,18-trinor-PGF2α, and the value of 200 to the luteolytic activity of 13,14-dehydro-16-p-fluorophenoxy-20,19,18,17-tetranor-PGF2α.

Assay [4] deals with mares, cows, heifers and sowes. The assay can be described thus: synchronizing the estrum / haematic progesterone levels in farm animals. Type of assay: in vivo. To be noted: for haematic levels of progesterone: after administration of 0.5-3 ml of the 0.5 mg/ml solution; for ability of synchronizing the estrum: solution in aqueous isotonic buffered (pH 7.5) medium, 0.5 mg/ml, mares, cows, heifers and sowes.

The target in assay [5] is T1, 15-hydroxy-prostaglandin-dehydrogenase drawn from human placenta (Homo sapiens, UniProt P15428).
T1 construct: drawn from human placenta; from tissue; host or cells: human placenta
T1 sequence (P15428 1-266): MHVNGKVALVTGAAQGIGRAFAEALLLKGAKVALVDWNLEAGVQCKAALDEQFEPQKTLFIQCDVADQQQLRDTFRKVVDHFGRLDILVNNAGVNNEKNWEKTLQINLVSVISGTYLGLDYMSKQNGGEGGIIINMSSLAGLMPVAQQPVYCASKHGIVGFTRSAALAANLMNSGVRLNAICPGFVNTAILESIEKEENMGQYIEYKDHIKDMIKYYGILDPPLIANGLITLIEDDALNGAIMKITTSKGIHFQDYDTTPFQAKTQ
In words: inhibition of 15-hydroxy-prostaglandin-dehydrogenase, in vitro. In kind it is biochemical. To be noted: enzyme from human placenta; inhibition partially competitive with respect to PGF2α. An excerpt:
The compounds of formula (I) furthermore inhibit the use of natural prostaglandins as substrate by the same enzyme.

As for `O=C(O)CCC/C=C\CC1C(O)CC(O)C1C#CC(O)COc1cccc(C(F)(F)F)c1` (stereo not drawn) [5c-9α,11α,15S-trihydroxy-20,19,18,17-tetranor-16-m-trifluoromethylphenoxy-prost-5-en-13-ynoic acid], the “Guinea Pig Ileum activity, PGF2α = 1” value in assay [1] is 0.50 (0.05-5). Besides, the “Rat Uterus activity, PGF2α = 1” value in assay [2] is reported as 3.86 (2.96-5.03).
For the molecule `CCCCC[C@H](O)/C=C/[C@@H]1[C@@H](C/C=C\CCCC(=O)O)[C@@H](O)C[C@H]1O` [PGF2α, reference compound], the “Guinea Pig Ileum activity, PGF2α = 1” value in assay [1] is 1. Besides, the “Rat Uterus activity, PGF2α = 1” value in assay [2] turned out to be 1. The “luteolytic activity, PGF2α = 1” value in assay [3] was found to be 1.
On to `O=C([O-])CCC/C=C\CC1C(O)CC(O)C1C#CC(O)COc1ccc(F)cc1.[Na+]` (stereo not drawn) [13,14-dehydro-16-p-fluorophenoxy-20,19,18,17-tetranor-PGF2α], for which, in assay [4], the “haematic levels of progesterone” value is “pronounced downfall” and the “ability of synchronizing the estrum” value was “very good results”.
Consider `O=C(O)CCC/C=C\C[C@@H]1[C@@H](/C=C/[C@@H](O)CCc2ccccc2)[C@H](O)C[C@@H]1O` [17-phenyl-20,19,18-trinor-PGF2α, 5c,13t-9α,11α,15S-trihydroxy-20,19,18-trinor-17-phenyl-prosta-5,13-dienoic acid, reference compound], for which the “Guinea Pig Ileum activity, PGF2α = 1” value in assay [1] was found to be 2.34. The “Rat Uterus activity, PGF2α = 1” value in assay [2] is 1.54.
Taken in the same sequence, the figures for `CO[C@H](C#C[C@@H]1[C@@H](C/C=C\CCCC(=O)O)[C@@H](O)C[C@H]1O)CCc1ccccc1` [5c-9α,11α-dihydroxy-15S-methoxy-20,19,18-trinor-17-phenyl-prost-5-en-13-ynoic acid] were 0.05 and 4.4.
As to `O=C([O-])CCC/C=C\CC1C(O)CC(O)C1C#CC(O)CCc1ccccc1.[Na+]` (stereo not drawn) [13,14-dehydro-17-phenyl-20,19,18-trinor-PGF2α], in assay [4], the “haematic levels of progesterone” value is “pronounced downfall” and the “ability of synchronizing the estrum” value is on record as “very good results”.
Regarding `O=C(O)CCC/C=C\CC1C(O)CC(O)C1C#CC(O)COc1ccc(F)cc1` (stereo not drawn) [5c-9α,11α,15S-trihydroxy-20,19,18,17-tetranor-16-p-fluorophenoxy-prost-5-en-13-ynoic acid], the “Guinea Pig Ileum activity, PGF2α = 1” value in assay [1] was 0.50 (0.05-5). Besides, the “Rat Uterus activity, PGF2α = 1” value in assay [2] is listed as 1.91 (1.34-2.73). In addition, the “luteolytic activity, PGF2α = 1” value in assay [3] was found to be 200.
The molecule `O=C(O)CCC/C=C\C[C@@H]1[C@@H](C#C[C@@H](O)CCc2ccccc2)[C@H](O)C[C@@H]1O` [5c-9α,11α,15S-trihydroxy-20,19,18-trinor-17-phenyl-prost-5-en-13-ynoic acid] yielded a Ki in assay [5] of 130 µM. The “Guinea Pig Ileum activity, PGF2α = 1” value in assay [1] is 0.6. Also, the “Rat Uterus activity, PGF2α = 1” value in assay [2] is listed as 22.74. For the same molecule, the “luteolytic activity, PGF2α = 1” value in assay [3] is recorded as not below 100.
Take `CCCCC[C@H](O)C#C[C@@H]1[C@@H](C/C=C\CCCC(=O)O)[C@@H](O)C[C@H]1O` [13,14-dehydro-PGF2α, reference compound]: the “Guinea Pig Ileum activity, PGF2α = 1” value in assay [1] amounted to 0.6. For the same molecule, the “Rat Uterus activity, PGF2α = 1” value in assay [2] worked out at 1.09.

(Values after patent US4195183A, “ω-Nor-aromatic-13,14-dehydro-prostaglandins and process for their preparation” (Farmitalia Certo Erba S.p.A., priority 1976, dated 1980).)
